From patent US7326732B2, “EP2 receptor agonists” (Pharmagene Laboratories Limited, priority 2004, dated 2008) come the findings set out here.

Assay [1] concerns the target T1, human EP2 prostanoid receptors (Homo sapiens, UniProt P43116).
T1 construct: expressed in transfected cells; host or cells: HEK-293
Nature of the assay: Agonist activity at recombinant human EP2 prostanoid receptors (cAMP in HEK-293 clones). The format is cell-based. Conditions: for activity (EP2 part): functional classification at EP2.

A further assay deals with T2, human EP3 receptor (Homo sapiens, UniProt P43115).
T2 construct: expressed in transfected cells
T2 sequence (P43115 1-390): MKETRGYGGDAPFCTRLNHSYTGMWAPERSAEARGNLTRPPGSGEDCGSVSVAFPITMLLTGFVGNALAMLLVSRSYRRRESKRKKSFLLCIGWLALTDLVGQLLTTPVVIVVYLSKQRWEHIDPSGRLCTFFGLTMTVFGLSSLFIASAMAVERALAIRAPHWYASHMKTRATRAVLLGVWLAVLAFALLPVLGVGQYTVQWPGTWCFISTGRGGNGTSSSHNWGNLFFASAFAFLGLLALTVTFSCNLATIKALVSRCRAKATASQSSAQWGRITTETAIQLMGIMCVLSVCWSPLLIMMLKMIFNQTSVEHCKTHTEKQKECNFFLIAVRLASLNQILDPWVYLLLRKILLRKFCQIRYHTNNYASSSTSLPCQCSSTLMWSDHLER
Nature of the assay: Binding ability to human EP receptors ([3H]PGE2 displacement), EP3. Conditions: membranes expressing human EP3; [3H]PGE2 2.5 nM; Cheng-Prusoff; read-out: pKi (M) EP3 (converted). The procedure, abridged:
(§1)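 Membranes from cells stably expressing human EP2, EP3 or EP4 incubated to equilibrium with [3H]PGE2 and compound at 0.1 to 10 000 nM. Non-specific binding defined with 10 uM PGE2; bound label separated by vacuum filtration and quantified by scintillation counting.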

In another assay the target is T3, human EP2 receptor (Homo sapiens, UniProt P43116).
T3 construct: expressed in transfected cells
T3 sequence (P43116 whole entry): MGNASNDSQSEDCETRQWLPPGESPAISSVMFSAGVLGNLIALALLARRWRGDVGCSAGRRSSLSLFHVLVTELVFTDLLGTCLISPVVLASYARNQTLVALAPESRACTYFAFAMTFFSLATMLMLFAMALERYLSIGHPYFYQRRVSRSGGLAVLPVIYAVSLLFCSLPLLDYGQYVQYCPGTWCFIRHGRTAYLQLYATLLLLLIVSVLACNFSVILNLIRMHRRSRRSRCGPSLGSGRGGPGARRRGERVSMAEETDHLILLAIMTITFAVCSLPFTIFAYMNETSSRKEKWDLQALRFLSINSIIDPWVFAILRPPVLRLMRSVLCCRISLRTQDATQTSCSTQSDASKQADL
Nature of the assay: Binding ability to human EP receptors ([3H]PGE2 displacement), EP2. The procedure, abridged:
as §1

The target of another assay is T4, human EP4 receptor (Homo sapiens, UniProt P35408).
T4 construct: expressed in transfected cells
T4 sequence (P35408 whole entry): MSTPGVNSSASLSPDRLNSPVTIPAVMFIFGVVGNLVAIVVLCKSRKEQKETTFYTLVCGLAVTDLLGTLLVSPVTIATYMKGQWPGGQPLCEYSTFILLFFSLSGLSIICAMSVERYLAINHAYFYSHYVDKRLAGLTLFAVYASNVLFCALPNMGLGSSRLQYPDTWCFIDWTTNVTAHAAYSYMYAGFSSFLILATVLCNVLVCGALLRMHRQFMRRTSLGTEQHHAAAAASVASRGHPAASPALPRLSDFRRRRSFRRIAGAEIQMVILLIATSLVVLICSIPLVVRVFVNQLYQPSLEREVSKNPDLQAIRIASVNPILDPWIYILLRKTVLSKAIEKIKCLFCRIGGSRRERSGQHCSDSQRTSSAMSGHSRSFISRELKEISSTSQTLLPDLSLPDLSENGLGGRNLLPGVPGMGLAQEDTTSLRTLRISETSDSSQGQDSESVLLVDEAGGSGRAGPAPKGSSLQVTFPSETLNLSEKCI
Nature of the assay: Binding ability to human EP receptors ([3H]PGE2 displacement), EP4. The settings on record: membranes expressing human EP4; [3H]PGE2 1 nM; Cheng-Prusoff; read-out: pKi (M) EP4 (converted). The procedure, abridged:
as §1

The mark [2] stands for this setting: HEK-293 stably transfected with human EP2, cAMP accumulation, read-out: pEC50 EP2 (converted).
[3] abbreviates: membranes expressing human EP2, [3H]PGE2 3 nM, Cheng-Prusoff, read-out: pKi (M) EP2 (converted).

Molecules are shown by their SMILES. Read-outs that look alike come from different tables or passages of the source.

T1 sequence (P43116 whole entry): as the sequence (P43116 whole entry) above

Turning to `O=C(O)CCc1cccc(NC(=O)c2ccc(-c3cccc(F)c3)o2)c1` [Compound 163, 3-(3-{[5-(3-Fluoro-phenyl)-furan-2-carbonyl]-amino}-phenyl)-propionic acid], the EC50 in assay [1] (setting [2]) is under 0.1 µM. Besides, in assay [1], the “activity (EP2 part)” value is “EP2 Agonist”. Besides, the Ki on human EP3 receptor is over 1e-05 M; at human EP2 receptor (setting [3]), under 1e-07 M; on human EP4 receptor it was over 1e-05 M.

As to `O=C(O)/C=C/c1cccc(NC(=O)c2ccc(-c3cccc(F)c3)o2)c1` [Compound 100, 3-(3-{[5-(3-Fluoro-phenyl)-furan-2-carbonyl]-amino}-phenyl)-acrylic acid], in assay [1] (setting [2]), the EC50 was under 0.1 µM. For the same compound, the “activity (EP2 part)” value in assay [1] is “EP2 Agonist”. The Ki on human EP3 receptor was over 1e-05 M; at human EP2 receptor (setting [3]), under 1e-07 M; at human EP4 receptor it was under 1e-05 M.

As to `CC(=O)c1ccc(-c2ccc(C(=O)Nc3cccc(CC(=O)O)c3)o2)cc1` [Compound 20, (3-{[5-(4-Acetyl-phenyl)-furan-2-carbonyl]-amino}-phenyl)-acetic acid], in assay [1] (setting [2]), the EC50 was under 10 µM. Also, the “activity (EP2 part)” value in assay [1] is listed as “EP2 agonist”. In addition, the Ki was over 1e-05 M at human EP3 receptor, under 1e-06 M on human EP2 receptor (setting [3]) and over 1e-05 M on human EP4 receptor.

Regarding `O=C(O)Cc1cccc(NC(=O)c2ccc(-c3ccc4c(c3)OCO4)o2)c1` [Compound 36, {3-[(5-Benzo[1,3]dioxol-5-yl-furan-2-carbonyl)-amino]-phenyl}-acetic acid], the EC50 in assay [1] (setting [2]) was under 0.1 µM. In assay [1], the “activity (EP2 part)” value is recorded as “EP2 agonist”. The figures for the Ki on human EP3 receptor, at human EP2 receptor (setting [3]) and at human EP4 receptor were over 1e-05 M, under 1e-06 M and over 1e-05 M, respectively.

Regarding `O=C(O)Cc1cccc(NC(=O)c2cccc(-c3ccc(Cl)cc3)n2)c1` [Compound 150, (3-{[6-(4-Chloro-phenyl)-pyridine-2-carbonyl]-amino}-phenyl)-acetic acid], in assay [1] (setting [2]), the EC50 is under 1 µM. Moreover, the “activity (EP2 part)” value in assay [1] is recorded as “EP2 Agonist”. For the same compound, the Ki at human EP3 receptor was over 1e-05 M; at human EP2 receptor (setting [3]), under 1e-06 M; on human EP4 receptor, over 1e-05 M.

Turning to `O=C(O)/C=C/c1cccc(NC(=O)c2cccc(-c3cc(Cl)cc(Cl)c3)n2)c1` [Compound 132, 3-(3-{[6-(3,5-Dichloro-phenyl)-pyridine-2-carbonyl]-amino}-phenyl)-acrylic acid], the EC50 in assay [1] (setting [2]) is under 0.1 µM. The “activity (EP2 part)” value in assay [1] is given as “EP2 Agonist”. Besides, the Ki on human EP3 receptor was over 1e-05 M; at human EP2 receptor (setting [3]), under 1e-07 M; at human EP4 receptor, over 1e-05 M.

In the case of `O=C(O)Cc1cccc(NC(=O)c2ccc(-c3ccccc3)o2)c1` [Compound 10, (3-{[5-(phenyl)-furan-2-carbonyl]-amino}-phenyl)-acetic acid], the EC50 in assay [1] (setting [2]) is under 1 µM. For the same compound, the “activity (EP2 part)” value in assay [1] was “EP2 agonist”. Also, the results for the Ki on human EP3 receptor, on human EP2 receptor (setting [3]) and on human EP4 receptor were over 1e-05 M, under 1e-06 M and over 1e-05 M, respectively.

Regarding `O=C(O)c1cccc(CNC(=O)c2ccc(-c3ccccc3)o2)c1` [Compound 57, 3-{[(5-Phenyl-furan-2-carbonyl)-amino]-methyl}-benzoic acid], the EC50 in assay [1] (setting [2]) is under 1 µM. Further, in assay [1], the “activity (EP2 part)” value was “EP2 Agonist”. For the same compound, the Ki on human EP3 receptor was over 1e-05 M; on human EP2 receptor (setting [3]) it was under 1e-05 M; on human EP4 receptor, over 1e-05 M.

`O=C(O)/C=C/c1cccc(NC(=O)c2cccc(-c3ccc(Cl)cc3)n2)c1` [Compound 151, 3-(3-{[6-(4-Chloro-phenyl)-pyridine-2-carbonyl]-amino}-phenyl)-acrylic acid]: in assay [1] (setting [2]), the EC50 was under 0.1 µM. The “activity (EP2 part)” value in assay [1] is given as “EP2 Agonist”. Also, the results for the Ki at human EP3 receptor, at human EP2 receptor (setting [3]) and at human EP4 receptor were over 1e-05 M, under 1e-07 M and over 1e-05 M, respectively.

As for `O=C(O)COc1cccc(NC(=O)c2cc(-c3ccc(F)cc3)ccc2F)c1` [Compound 171, {3-[(4,4′-Difluoro-biphenyl-3-carbonyl)-amino]-phenoxy}-acetic acid], the EC50 in assay [1] (setting [2]) is under 0.1 µM. The “activity (EP2 part)” value in assay [1] was “EP2 Agonist”. Besides, the Ki was over 1e-05 M at human EP3 receptor, under 1e-07 M on human EP2 receptor (setting [3]) and over 1e-05 M at human EP4 receptor.

With `CC(=O)c1cccc(-c2ccc(C(=O)Nc3cccc(CC(=O)O)c3)o2)c1` [Compound 19, (3-{[5-(3-Acetyl-phenyl)-furan-2-carbonyl]-amino}-phenyl)-acetic acid], the EC50 in assay [1] (setting [2]) was under 10 µM. Further, the “activity (EP2 part)” value in assay [1] was “EP2 agonist”. The figures for the Ki on human EP3 receptor, on human EP2 receptor (setting [3]) and on human EP4 receptor were over 1e-05 M, under 1e-06 M and over 1e-05 M, respectively.

As to `O=C(O)/C=C/c1cccc(CC(=O)c2ccc(-c3ccccc3)o2)c1` [Compound 120, 3-{3-[2-Oxo-2-(5-phenyl-furan-2-yl)-ethyl]-phenyl}-acrylic acid], in assay [1] (setting [2]), the EC50 was under 1 µM. In addition, the “activity (EP2 part)” value in assay [1] is reported as “EP2 Agonist”. Moreover, the Ki at human EP3 receptor is over 1e-05 M; on human EP2 receptor (setting [3]), under 1e-05 M; at human EP4 receptor, over 1e-05 M.

Regarding `O=C(O)Cc1cccc(NC(=O)c2ccc(-c3ccc(Cl)c(Cl)c3)o2)c1` [Compound 27, (3-{[5-(3,4-Dichloro-phenyl)-furan-2-carbonyl]-amino}-phenyl)-acetic acid], the EC50 in assay [1] (setting [2]) was under 0.1 µM. In assay [1], the “activity (EP2 part)” value is on record as “EP2 agonist”. In addition, the results for the Ki at human EP3 receptor, at human EP2 receptor (setting [3]) and on human EP4 receptor were over 1e-05 M, under 1e-07 M and over 1e-05 M, respectively.

In the case of `O=C(O)Cc1cccc(NC(=O)c2ccc(-c3cc(F)cc(F)c3)o2)c1` [Compound 127, (3-{[5-(3,5-Difluoro-phenyl)-furan-2-carbonyl]-amino}-phenyl)-acetic acid], the EC50 in assay [1] (setting [2]) was under 0.1 µM. Moreover, the “activity (EP2 part)” value in assay [1] is given as “EP2 Agonist”. For the same compound, the Ki on human EP3 receptor was over 1e-05 M; on human EP2 receptor (setting [3]), under 1e-07 M; on human EP4 receptor it was over 1e-05 M.

Regarding `O=C(O)Cc1cccc(NC(=O)c2ccc(-c3ccc4[nH]ccc4c3)o2)c1` [Compound 41], the EC50 in assay [1] (setting [2]) was under 1 µM. Further, the “activity (EP2 part)” value in assay [1] was “EP2 agonist”. Also, the results for the Ki at human EP3 receptor, at human EP2 receptor (setting [3]) and on human EP4 receptor were over 1e-05 M, under 1e-06 M and over 1e-05 M, respectively.

Take `O=C(O)/C=C/c1cccc(NC(=O)c2cc(-c3ccc(F)cc3)ccc2F)c1` [Compound 112, 3-{3-[(4,4′-Difluoro-biphenyl-3-carbonyl)-amino]-phenyl}-acrylic acid]: the EC50 in assay [1] (setting [2]) is under 0.1 µM. The “activity (EP2 part)” value in assay [1] is on record as “EP2 Agonist”. The values for the Ki at human EP3 receptor, on human EP2 receptor (setting [3]) and at human EP4 receptor were over 1e-05 M, under 1e-07 M and over 1e-05 M, respectively.

Regarding `Cc1cccc(-c2ccc(C(=O)Nc3cccc(CC(=O)O)c3)o2)c1` [Compound 21, (3-{[5-(3-Methyl-phenyl)-furan-2-carbonyl]-amino}-phenyl)-acetic acid], the EC50 in assay [1] (setting [2]) is under 1 µM. In addition, the “activity (EP2 part)” value in assay [1] is recorded as “EP2 agonist”. The values for the Ki on human EP3 receptor, on human EP2 receptor (setting [3]) and at human EP4 receptor were over 1e-05 M, under 1e-06 M and over 1e-05 M, respectively.

Take `O=C(O)CCc1cccc(NC(=O)c2ccc(-c3ccc(F)cc3)o2)c1` [Compound 148, 3-(3-{[5-(4-Fluoro-phenyl)-furan-2-carbonyl]-amino}-phenyl)-propionic acid]: the EC50 in assay [1] (setting [2]) is under 0.1 µM. Further, the “activity (EP2 part)” value in assay [1] is recorded as “EP2 Agonist”. For the same compound, the Ki at human EP3 receptor was over 1e-05 M; on human EP2 receptor (setting [3]), under 1e-07 M; at human EP4 receptor, over 1e-05 M.

On to `O=C(O)COc1cccc(NC(=O)c2cccc(-c3cccc(F)c3)n2)c1` [Compound 170, (3-{[6-(3-Fluoro-phenyl)-pyridine-2-carbonyl]-amino}-phenoxy)-acetic acid], for which, in assay [1] (setting [2]), the EC50 was under 0.1 µM. Besides, the “activity (EP2 part)” value in assay [1] is listed as “EP2 Agonist”. The Ki on human EP3 receptor is over 1e-05 M; on human EP2 receptor (setting [3]), under 1e-07 M; at human EP4 receptor, under 1e-06 M.

For `O=C(O)Cc1cccc(NC(=O)c2ccc(-c3cccc4ccccc34)o2)c1` [Compound 31, {3-[(5-Naphthalen-1-yl-furan-2-carbonyl)-amino]-phenyl}-acetic acid], the EC50 in assay [1] (setting [2]) was under 1 µM. Further, the “activity (EP2 part)” value in assay [1] is “EP2 agonist”. The values for the Ki on human EP3 receptor, at human EP2 receptor (setting [3]) and on human EP4 receptor were over 1e-05 M, under 1e-06 M and under 1e-06 M, respectively.

On to `O=C(O)/C=C/c1cccc(NC(=O)c2csc(-c3ccccc3)n2)c1` [Compound 115, 3-{3-[(2-Phenyl-thiazole-4-carbonyl)-amino]-phenyl}-acrylic acid], for which the EC50 in assay [1] (setting [2]) is under 0.1 µM. Moreover, in assay [1], the “activity (EP2 part)” value is reported as “EP2 Agonist”. The Ki is over 1e-05 M at human EP3 receptor, under 1e-07 M at human EP2 receptor (setting [3]) and over 1e-05 M on human EP4 receptor.

Turning to `O=C(O)/C=C/c1cccc(NC(=O)c2cccc(-c3cccc(Cl)c3)n2)c1` [Compound 137, 3-(3-{[6-(3-Chloro-phenyl)-pyridine-2-carbonyl]-amino}-phenyl)-acrylic acid], the EC50 in assay [1] is under 0.1 µM. Further, in assay [1], the “activity (EP2 part)” value is “EP2 Agonist”. Further, the Ki is over 1e-05 M at human EP3 receptor, under 1e-07 M at human EP2 receptor and under 1e-06 M on human EP4 receptor.
